# Experimental data reported in paper PMC2010749, “Cytotoxic and clastogenic effects of soluble and insoluble compounds containing hexavalent and trivalent chromium” (British Journal of Cancer, 1981).
# Tests used:
# [1] = system: BHK 21 Syrian hamster fibroblast line; test: Cell growth of BHK cultures (DNA + RNA content), Cr compounds added directly to medium; format: cell-based; conditions: 48 h in MEM
# Description: (§1) Cell growth and labelling.-The reduction in cell growth, based on the nucleic acid content (DNA + RNA) of treated cultures, and the inhibition of DNA, RNA and protein syn- thesis, based on the incorporation of labelled precursors, were determined, to evaluate the cytotoxic effects of Cr compounds in BHK cell cultures. […] Three to four thousand cells were then examined for each dose level and each time interval, and the mitotic index (the ratio of all mitoses to the total number of cells) and the frequencies of each mitotic phase (the ratios of cells in each phase to total mitoses) were determined. […] Chromium compounds and cell treatments.- The tested compounds of Cr(VI) and Cr(III) and their physico-chemical properties are listed in Table I. In many experiments in which most of them were highly insoluble or only partially soluble (see Tables I, IV, V), Cr compounds were directly suspended in the growth medium used for treatments. In the experiments on the induction of chromosome aberrations and SCE in CHO cells, almost complete solubilization was obtained in N HCI for Cr(III) compounds and 0-5N NaOH for Cr(VI) compounds, after which they were diluted with MEM to the final concentrations specified in Table IX. […] The cytotoxic and clastogenic effects were usually deter- mined just at the end of Cr treatments, but sometimes the treated cells were washed with HBSS and incubated with normal growth medium, so that the effects of Cr were deter- mined at different times after the end of treatment (see Fig. 3 and Table VII).
# [2] = system: BHK 21 Syrian hamster fibroblast line; test: DNA, RNA and protein syntheses in BHK cells, Cr compounds added directly to medium; format: cell-based; conditions: 48 h in MEM
# Description: (§2) Cell growth and labelling.-The reduction in cell growth, based on the nucleic acid content (DNA + RNA) of treated cultures, and the inhibition of DNA, RNA and protein syn- thesis, based on the incorporation of labelled precursors, were determined, to evaluate the cytotoxic effects of Cr compounds in BHK cell cultures. […] Three to four thousand cells were then examined for each dose level and each time interval, and the mitotic index (the ratio of all mitoses to the total number of cells) and the frequencies of each mitotic phase (the ratios of cells in each phase to total mitoses) were determined. […] Chromium compounds and cell treatments.- The tested compounds of Cr(VI) and Cr(III) and their physico-chemical properties are listed in Table I. In many experiments in which most of them were highly insoluble or only partially soluble (see Tables I, IV, V), Cr compounds were directly suspended in the growth medium used for treatments. […] The cytotoxic and clastogenic effects were usually deter- mined just at the end of Cr treatments, but sometimes the treated cells were washed with HBSS and incubated with normal growth medium, so that the effects of Cr were deter- mined at different times after the end of treatment (see Fig. 3 and Table VII).
# [3] = system: BHK 21 Syrian hamster fibroblast line; test: DNA, RNA and protein syntheses in BHK monolayers exposed to filtered medium preincubated with Cr compounds; format: cell-based;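 note: DNA, RNA and protein synthesis in BHK cultures assessed by incorporation of labelled precursors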
# Description: as §2
# [4] = system: CHO Chinese hamster fibroblast line; test: Cell growth of CHO cultures (DNA + RNA content); format: cell-based; conditions: 32 h in MEM
# Description: as §2
# [5] = system: HEp-2 human epithelial-like line; conditions: 2 h exposure to medium preincubated 2 days with 0.5 mg/ml in presence of BHK cells
# Description: as §2
# [6] = Solubility of chromium compounds (Table I)
# Description: as §1
# [7] = system: rats; conditions: s.c. in rats; 0% in the controls; ref Maltoni (1976); cited from earlier work
# [8] = system: Salmonella; conditions: ref Petrilli & De Flora (1978a,b) and De Flora (1981), cited from earlier work
# [9] = preincubated 48 h with 0.5 mg/ml, cells exposed 24 h
# [10] = 0.5 mg/ml, preincubation 2 h, monolayers exposed 24 h
# [11] = 0.5 mg/ml, preincubation 1 d, monolayers exposed 24 h
# [12] = 0.5 mg/ml, preincubation 2 d, monolayers exposed 24 h
# [13] = 0.5 mg/ml, preincubation 3 d, monolayers exposed 24 h
# [14] = 0.5 mg/ml, preincubation 6 d, monolayers exposed 24 h
# [15] = preincubated 48 h with 0.15/0.05 mg/ml (one value for both), cells exposed 24 h
structure (smiles),measurement,setting,value
[Cl][Cr]([Cl])[Cl] [Chromium chloride],Cell growth,[1]; 0.5 mg/ml,100 % of controls
same,DNA synthesis,[2]; 0.5 mg/ml,100 % of controls
same,Protein synthesis,[2]; 0.5 mg/ml,100 % of controls
same,RNA synthesis,[2]; 0.5 mg/ml,100 % of controls
same,"DNA synthesis, preinc. in MEM",[3]; [9],100 % of controls
same,"DNA synthesis, preinc. in MEM+BHK",[3]; [9],100 % of controls
same,"Protein synthesis, preinc. in MEM",[3]; [9],100 % of controls
same,"Protein synthesis, preinc. in MEM+BHK",[3]; [9],100 % of controls
same,"RNA synthesis, preinc. in MEM",[3]; [9],100 % of controls
same,"RNA synthesis, preinc. in MEM+BHK",[3]; [9],100 % of controls
same,Cell growth,[4]; 50 µg/ml,95 % control
same,Mitotic block (% increase of abnormal metaphases 2-4 h after treatment),[5],+ (+ (<50%))
same,"Mitotic inhibition, early (% reduction of normal prophases at the end of treatment)",[5],++ (+ + (30-70%))
same,"Mitotic inhibition, late (% reduction of normal prophases 24 h after treatment)",[5],+ (+ (< 30%))
same,Solubility in water,[6],High
"[O]=[Cr](=[O])([O-])[O-].[O]=[Pb].[Pb+2] [Chromium orange, Basic lead chromate]",Cell growth,[1]; 0.05 mg/ml,72 % of controls
same,Cell growth,[1]; 0.15 mg/ml,41 % of controls
same,Cell growth,[1]; 0.5 mg/ml,0 % of controls
same,DNA synthesis,[2]; 0.05 mg/ml,43 % of controls
same,Protein synthesis,[2]; 0.05 mg/ml,92 % of controls
same,RNA synthesis,[2]; 0.05 mg/ml,84 % of controls
same,DNA synthesis,[2]; 0.15 mg/ml,11 % of controls
same,Protein synthesis,[2]; 0.15 mg/ml,75 % of controls
same,RNA synthesis,[2]; 0.15 mg/ml,53 % of controls
same,DNA synthesis,[2]; 0.5 mg/ml,0 % of controls
same,Protein synthesis,[2]; 0.5 mg/ml,0 % of controls
same,RNA synthesis,[2]; 0.5 mg/ml,0 % of controls
same,"DNA synthesis, preinc. in MEM",[3]; [10],100 % of controls
same,"DNA synthesis, preinc. in MEM+BHK",[3]; [10],100 % of controls
same,"Protein synthesis, preinc. in MEM",[3]; [10],100 % of controls
same,"Protein synthesis, preinc. in MEM+BHK",[3]; [10],100 % of controls
same,"RNA synthesis, preinc. in MEM",[3]; [10],100 % of controls
same,"RNA synthesis, preinc. in MEM+BHK",[3]; [10],100 % of controls
same,"DNA synthesis, preinc. in MEM",[3]; [11],84 % of controls
same,"DNA synthesis, preinc. in MEM+BHK",[3]; [11],95 % of controls
same,"Protein synthesis, preinc. in MEM",[3]; [11],100 % of controls
same,"Protein synthesis, preinc. in MEM+BHK",[3]; [11],100 % of controls
same,"RNA synthesis, preinc. in MEM",[3]; [11],100 % of controls
same,"RNA synthesis, preinc. in MEM+BHK",[3]; [11],100 % of controls
same,"DNA synthesis, preinc. in MEM",[3]; [12],54 % of controls
same,"DNA synthesis, preinc. in MEM+BHK",[3]; [12],86 % of controls
same,"Protein synthesis, preinc. in MEM",[3]; [12],92 % of controls
same,"Protein synthesis, preinc. in MEM+BHK",[3]; [12],100 % of controls
same,"RNA synthesis, preinc. in MEM",[3]; [12],85 % of controls
same,"RNA synthesis, preinc. in MEM+BHK",[3]; [12],96 % of controls
same,"DNA synthesis, preinc. in MEM",[3]; [13],47 % of controls
same,"DNA synthesis, preinc. in MEM+BHK",[3]; [13],78 % of controls
same,"Protein synthesis, preinc. in MEM",[3]; [13],100 % of controls
same,"Protein synthesis, preinc. in MEM+BHK",[3]; [13],100 % of controls
same,"RNA synthesis, preinc. in MEM",[3]; [13],81 % of controls
same,"RNA synthesis, preinc. in MEM+BHK",[3]; [13],100 % of controls
same,"DNA synthesis, preinc. in MEM",[3]; [14],21 % of controls
same,"DNA synthesis, preinc. in MEM+BHK",[3]; [14],52 % of controls
same,"Protein synthesis, preinc. in MEM",[3]; [14],78 % of controls
same,"Protein synthesis, preinc. in MEM+BHK",[3]; [14],92 % of controls
same,"RNA synthesis, preinc. in MEM",[3]; [14],66 % of controls
same,"RNA synthesis, preinc. in MEM+BHK",[3]; [14],72 % of controls
same,"DNA synthesis, preinc. in MEM",[3]; [9],62 % of controls
same,"DNA synthesis, preinc. in MEM+BHK",[3]; [9],100 % of controls
same,"Protein synthesis, preinc. in MEM",[3]; [9],100 % of controls
same,"Protein synthesis, preinc. in MEM+BHK",[3]; [9],100 % of controls
same,"RNA synthesis, preinc. in MEM",[3]; [9],93 % of controls
same,"RNA synthesis, preinc. in MEM+BHK",[3]; [9],100 % of controls
same,"DNA synthesis, preinc. in MEM",[3]; [15],100 % of controls
same,"DNA synthesis, preinc. in MEM+BHK",[3]; [15],100 % of controls
same,"Protein synthesis, preinc. in MEM",[3]; [15],100 % of controls
same,"Protein synthesis, preinc. in MEM+BHK",[3]; [15],100 % of controls
same,"RNA synthesis, preinc. in MEM",[3]; [15],100 % of controls
same,"RNA synthesis, preinc. in MEM+BHK",[3]; [15],100 % of controls
same,Cell growth,[4]; 5 µg/ml,100 % control
same,Cell growth,[4]; 25 µg/ml,93 % control
same,Cell growth,[4]; 150 µg/ml,56 % control
same,Mitotic block (% increase of abnormal metaphases 2-4 h after treatment),[5],++ (+ + (50-100%))
same,"Mitotic inhibition, early (% reduction of normal prophases at the end of treatment)",[5],++ (+ + (30-70%))
same,"Mitotic inhibition, late (% reduction of normal prophases 24 h after treatment)",[5],+++ (+ + + (> 70%))
same,Frequency of sarcomas at the site of injection,[7],65-90%
same,Mutagenicity in the plate test,[8]; dissolved in 0.5N NaOH,positive
same,Mutagenicity in the spot test,[8],mutagens
same,Solubility in water,[6],Very low
